Source: article PMC2430034, “Structural Development Studies of Subtype-Selective Ligands for Peroxisome Proliferator-Activated Receptors (PPARs) Based on the 3,4-Disubstituted Phenylpropanoic Acid Scaffold as a Versatile Template” (PPAR Research, 2008)
Where two headings read alike, the source gives them in different places.

Experiments:
Type in all cases: cell-based
[1] = target: T1, PPARγ (Homo sapiens, UniProt P37231); assay: cell-based; conditions: read-out: Transactivation activity EC50 PPARγ
T1 sequence (P37231 238-505 limits assumed): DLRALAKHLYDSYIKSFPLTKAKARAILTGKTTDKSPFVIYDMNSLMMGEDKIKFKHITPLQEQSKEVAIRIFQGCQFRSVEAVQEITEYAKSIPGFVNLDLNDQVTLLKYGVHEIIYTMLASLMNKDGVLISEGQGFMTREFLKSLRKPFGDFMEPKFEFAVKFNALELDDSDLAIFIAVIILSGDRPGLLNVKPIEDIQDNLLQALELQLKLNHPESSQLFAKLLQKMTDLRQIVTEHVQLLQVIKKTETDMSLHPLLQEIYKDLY

[2] = target: T2, RARα (Homo sapiens, UniProt P10276); assay: Nuclear receptor cross-reactivity transactivation, RARα
T2 construct: expressed in transfected cells
T2 sequence (P10276 1-462): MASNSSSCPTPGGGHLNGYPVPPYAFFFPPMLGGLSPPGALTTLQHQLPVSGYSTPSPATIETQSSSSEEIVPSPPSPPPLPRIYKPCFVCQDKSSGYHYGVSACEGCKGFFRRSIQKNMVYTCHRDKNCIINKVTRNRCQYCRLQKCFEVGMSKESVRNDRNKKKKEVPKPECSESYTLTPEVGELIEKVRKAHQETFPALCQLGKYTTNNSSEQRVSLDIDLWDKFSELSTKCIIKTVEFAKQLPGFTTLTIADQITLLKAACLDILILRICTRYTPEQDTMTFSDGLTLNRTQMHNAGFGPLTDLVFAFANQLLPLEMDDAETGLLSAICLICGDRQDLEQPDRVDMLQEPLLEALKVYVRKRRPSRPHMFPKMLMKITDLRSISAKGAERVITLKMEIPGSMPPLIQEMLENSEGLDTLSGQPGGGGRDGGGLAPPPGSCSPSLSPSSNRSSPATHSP

[3] = target: T3, RXRα (Homo sapiens, UniProt P19793); assay: Nuclear receptor cross-reactivity transactivation, RXRα
T3 construct: expressed in transfected cells
T3 sequence (P19793 1-462): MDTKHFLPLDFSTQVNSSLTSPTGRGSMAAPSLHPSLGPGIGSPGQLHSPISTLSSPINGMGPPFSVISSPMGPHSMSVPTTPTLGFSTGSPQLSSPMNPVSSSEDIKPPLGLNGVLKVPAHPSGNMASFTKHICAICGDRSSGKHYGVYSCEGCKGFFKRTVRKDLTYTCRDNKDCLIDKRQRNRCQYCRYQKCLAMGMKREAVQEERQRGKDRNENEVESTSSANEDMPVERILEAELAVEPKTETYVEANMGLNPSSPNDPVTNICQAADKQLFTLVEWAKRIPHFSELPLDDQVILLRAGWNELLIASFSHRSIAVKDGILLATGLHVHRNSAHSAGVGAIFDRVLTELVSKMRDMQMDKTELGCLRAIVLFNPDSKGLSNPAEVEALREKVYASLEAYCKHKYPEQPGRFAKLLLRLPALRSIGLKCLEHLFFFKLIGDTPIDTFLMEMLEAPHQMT

[4] = target: T4, PPARδ (Homo sapiens, UniProt Q03181); assay: cell-based; conditions: PPAR-GAL4 chimeric receptors, transiently transfected HEK-293 cells; ia = inactive at 10 μM; read-out: Transactivation activity EC50 PPARδ
T4 sequence (Q03181 171-441 limits assumed): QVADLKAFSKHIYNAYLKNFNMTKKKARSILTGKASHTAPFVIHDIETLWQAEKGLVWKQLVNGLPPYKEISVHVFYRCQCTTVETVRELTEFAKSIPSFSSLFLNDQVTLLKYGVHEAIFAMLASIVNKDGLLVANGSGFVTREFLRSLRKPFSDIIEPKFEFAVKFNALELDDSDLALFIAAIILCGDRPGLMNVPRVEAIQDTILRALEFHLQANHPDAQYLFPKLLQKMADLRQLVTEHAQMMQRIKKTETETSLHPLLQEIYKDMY

[5] = target: T5, LXRα (Homo sapiens, UniProt Q13133); assay: Nuclear receptor cross-reactivity transactivation, LXRα
T5 construct: expressed in transfected cells
T5 sequence (Q13133 1-447): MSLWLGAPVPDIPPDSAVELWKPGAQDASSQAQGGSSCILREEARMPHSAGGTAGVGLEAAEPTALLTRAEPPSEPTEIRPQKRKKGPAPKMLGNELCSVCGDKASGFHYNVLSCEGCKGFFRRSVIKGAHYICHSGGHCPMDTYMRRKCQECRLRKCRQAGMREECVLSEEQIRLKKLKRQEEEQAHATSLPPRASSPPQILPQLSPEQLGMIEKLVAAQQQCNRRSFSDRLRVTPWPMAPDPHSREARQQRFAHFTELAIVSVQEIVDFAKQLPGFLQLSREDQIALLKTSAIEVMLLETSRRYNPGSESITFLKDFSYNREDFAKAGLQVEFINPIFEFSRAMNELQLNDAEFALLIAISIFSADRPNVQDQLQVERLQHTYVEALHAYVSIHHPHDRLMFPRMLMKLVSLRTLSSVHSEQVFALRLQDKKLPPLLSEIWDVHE

[6] = target: T6, VDR (Homo sapiens, UniProt P11473); assay: Nuclear receptor cross-reactivity transactivation, VDR
T6 construct: expressed in transfected cells
T6 sequence (P11473 1-427): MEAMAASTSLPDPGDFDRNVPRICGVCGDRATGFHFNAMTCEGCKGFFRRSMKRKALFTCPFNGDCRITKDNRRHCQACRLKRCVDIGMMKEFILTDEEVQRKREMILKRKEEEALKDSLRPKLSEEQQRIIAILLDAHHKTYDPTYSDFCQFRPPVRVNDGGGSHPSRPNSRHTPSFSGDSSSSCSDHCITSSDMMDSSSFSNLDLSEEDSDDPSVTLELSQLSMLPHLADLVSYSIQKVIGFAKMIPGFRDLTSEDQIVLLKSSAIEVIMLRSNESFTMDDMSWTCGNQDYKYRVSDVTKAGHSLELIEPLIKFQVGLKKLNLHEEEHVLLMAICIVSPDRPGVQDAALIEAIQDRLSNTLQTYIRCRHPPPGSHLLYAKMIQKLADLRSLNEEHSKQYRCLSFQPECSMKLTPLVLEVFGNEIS

[7] = target: T7, PPARα (Homo sapiens, UniProt Q07869); assay: PPARα-GAL4 chimeric receptor transactivation in HEK-293 cells; conditions: PPAR-GAL4 chimeric receptors, transiently transfected HEK-293 cells; ia = inactive at 10 μM
T7 sequence (Q07869 200-468 limits assumed): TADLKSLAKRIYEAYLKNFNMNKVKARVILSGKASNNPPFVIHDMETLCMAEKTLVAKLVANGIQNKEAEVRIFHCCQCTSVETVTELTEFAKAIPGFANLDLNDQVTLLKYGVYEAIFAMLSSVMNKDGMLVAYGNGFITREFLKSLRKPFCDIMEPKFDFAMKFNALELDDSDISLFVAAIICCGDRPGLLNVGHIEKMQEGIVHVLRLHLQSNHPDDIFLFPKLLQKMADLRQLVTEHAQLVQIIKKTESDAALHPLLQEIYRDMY

[8] = target: T8, PPARγ (Homo sapiens, UniProt P37231); assay: Nuclear receptor cross-reactivity transactivation, PPARγ
T8 construct: expressed in transfected cells
T8 sequence (P37231 1-505): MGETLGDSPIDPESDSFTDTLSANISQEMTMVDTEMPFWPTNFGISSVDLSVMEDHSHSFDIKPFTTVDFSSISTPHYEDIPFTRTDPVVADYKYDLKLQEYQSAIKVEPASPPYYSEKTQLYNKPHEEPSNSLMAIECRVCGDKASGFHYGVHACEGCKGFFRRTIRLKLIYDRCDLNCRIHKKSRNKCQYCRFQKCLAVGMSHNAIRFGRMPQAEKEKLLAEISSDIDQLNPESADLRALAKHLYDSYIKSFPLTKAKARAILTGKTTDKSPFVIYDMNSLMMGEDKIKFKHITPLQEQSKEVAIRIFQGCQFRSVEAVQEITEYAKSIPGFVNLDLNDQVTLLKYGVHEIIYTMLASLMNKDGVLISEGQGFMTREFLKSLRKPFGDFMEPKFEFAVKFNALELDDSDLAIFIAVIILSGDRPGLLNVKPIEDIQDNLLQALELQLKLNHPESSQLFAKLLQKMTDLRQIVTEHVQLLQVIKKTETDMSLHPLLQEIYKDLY

[9] = target: T9, PPARα (Canis lupus familiaris, UniProt Q95N78); assay: Dog PPARα transactivation (species differences); conditions: CHO-K1 cells (footnote of Table 1)
T9 construct: expressed in transfected cells
T9 sequence (Q95N78 1-468): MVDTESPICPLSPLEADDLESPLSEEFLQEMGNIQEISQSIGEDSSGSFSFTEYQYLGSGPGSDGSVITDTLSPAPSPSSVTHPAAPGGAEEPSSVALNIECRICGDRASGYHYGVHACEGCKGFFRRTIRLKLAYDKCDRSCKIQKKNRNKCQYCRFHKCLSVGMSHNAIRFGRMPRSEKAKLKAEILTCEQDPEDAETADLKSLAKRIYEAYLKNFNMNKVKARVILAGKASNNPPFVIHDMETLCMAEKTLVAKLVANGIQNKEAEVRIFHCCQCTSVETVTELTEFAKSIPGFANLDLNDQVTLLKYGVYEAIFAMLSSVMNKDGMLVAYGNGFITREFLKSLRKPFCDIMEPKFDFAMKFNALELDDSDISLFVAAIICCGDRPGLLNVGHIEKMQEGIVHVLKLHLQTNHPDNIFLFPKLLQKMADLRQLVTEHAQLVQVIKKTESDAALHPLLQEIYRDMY

[10] = target: T10, PPARα (Rattus norvegicus, UniProt P37230); assay: Rat PPARα transactivation (species differences); conditions: CHO-K1 cells (footnote of Table 1)
T10 construct: expressed in transfected cells
T10 sequence (P37230 1-468): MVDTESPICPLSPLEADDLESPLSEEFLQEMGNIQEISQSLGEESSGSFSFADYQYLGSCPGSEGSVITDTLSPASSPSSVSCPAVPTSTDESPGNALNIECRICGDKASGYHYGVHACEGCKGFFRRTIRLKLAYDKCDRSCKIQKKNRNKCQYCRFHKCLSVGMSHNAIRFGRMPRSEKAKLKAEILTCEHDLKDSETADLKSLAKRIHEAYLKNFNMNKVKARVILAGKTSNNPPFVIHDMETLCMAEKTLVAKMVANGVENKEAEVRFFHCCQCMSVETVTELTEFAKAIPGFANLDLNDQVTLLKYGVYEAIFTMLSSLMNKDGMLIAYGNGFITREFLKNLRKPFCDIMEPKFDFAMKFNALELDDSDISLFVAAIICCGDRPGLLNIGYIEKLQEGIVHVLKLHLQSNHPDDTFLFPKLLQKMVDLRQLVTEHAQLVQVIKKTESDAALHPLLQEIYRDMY

[11] = target: T7, PPARα; assay: PPARα-GAL4 chimeric receptor transactivation in CHO-K1 cells; conditions: human PPARα; CHO-K1 cells (footnote of Table 1); read-out: Transactivation activity EC50 PPARα Human
[12] = concentrations up to 1 μM (Figure 4)
[13] = concentrations up to 300 nM (Figure 7)

SMILES	EC50 ([1]; PPAR-GAL4 chimeric receptors, transiently transfected HEK-293 cells, ia = inactive at 10 μM) [nM]	activation of RARα [2, 12]	activation of RXRα [3, 12]	EC50 [4] [nM]	activation of LXRα [5, 12]	activation of VDR [6, 12]	EC50 [7] [nM]	activation of PPARγ [8, 12]	EC50 [1] [nM]	activation of RARα [2, 13]	activation of RXRα [3, 13]	activation of LXRα [5, 13]	activation of VDR [6, 13]	activation of PPARγ [8, 13]	EC50 [9] [nM]	EC50 [10] [nM]	EC50 [11] [nM]
CC[C@@H](Cc1ccc(OC)c(CNC(=O)c2ccc(C(F)(F)F)cc2F)c1)C(=O)O [Compound 41, (S)-2-{3-[(2-fluoro-4-trifluoromethylbenzoylamino)methyl]-4-methoxybenzyl}butyric acid]	1900	did not significantly activate	did not significantly activate	12	did not significantly activate	did not significantly activate	10	did not significantly activate									
CCCCOc1ccc(C[C@H](CC)C(=O)O)cc1CNC(=O)c1ccc(C(F)(F)F)cc1F [Compound 65, (S)-2-{3-[(2-fluoro-4-trifluoromethylbenzoylamino)methyl]-4-buthoxy-benzyl}butyric acid]				0.91			250		1100	did not significantly activate	did not significantly activate	did not significantly activate	did not significantly activate	did not significantly activate			
CC[C@@H](Cc1ccc(OC)c(C(=O)NCc2ccc(C(F)(F)F)cc2)c1)C(=O)O [KCL, (S)-2-[4-methoxy-3-(4-trifluoromethylbenzylcarbamoyl)phenylmethyl]butyric acid]															160	5200	60
